The results in this text go back to patent US20260000596A1, “SEMI-SYNTHETIC RHAMNOLIPIDS” (The Procter & Gamble Company, priority 2024, published 2026).

Assay type in all cases: cell-based
Assay [1] deals with Escherichia coli ATCC 8739. The assay is described as follows: Minimal Kill Concentration Assay (MKCA), E. coli. The settings on record: for MBC: Escherichia coli, ATCC8739, 20 min, read-out: E. coli MKC (ppm). The procedure:
(§1) The MKC assay is a 96 well plate method to determine the minimum concentration of a test material or composition needed to kill Gram-negative and Gram-positive bacteria (Escherichia coli ATCC 8739 and Staphylococcus aureus ATCC 6538, respectively). The bacterial suspensions are prepared from 10× freezer stocks with 15% glycerol. The freezer stocks are centrifuged at 13,000×g (Eppendorf Centrifuge […] No. 541705483) for 1 minute. The supernatant is removed, and the cell pellet is resuspended in 1 mL saline (Sodium chloride solution 0.9%, Cytiva REF: Z1376), and then transferred to 9 mL saline. The target cfu/ml is 10^8, which is confirmed via serial diluting and plating on TSA plates (Tryptic Soy Agar-Sigma-Aldrich Cat #22091). Then 50 μL (25 μL if low on test materials) of bacteria is added to each well of a 96 well 0.5 mL V-Bottom plate (Greiner bio-one REF: 786201) to make a bacteria plate, one separate plate for each bacterium. The dilutions of the test compounds are prepared in a separate 96 well plate. The test compounds are tested at six dilutions in duplicates or with no replication diluted across the entire plate. The test compounds are prepared in Dimethyl Sulfoxide (Sigma Aldrich GR ACS Cat. No: MX1458-6) or sterile water at 2× the intended test concentration, and then serially diluted in the appropriate vehicle 1:2 across the plate using a multichannel. 50 μL (25 μL if low on test materials) from the test compound plate is added to each well in the bacteria plate all at once using an Integra VIAFLOW 96 channel pipette (Model: VIAFLO 96) and the Integra 300 μL Head (Part No. 6103). With addition of the 2× compounds bacteria plate, the compounds are diluted to a 1× test concentration. The addition of the test compounds to the bacteria wells starts the 20-minute contact time. The plates are mixed well using a Mix-Mate (Eppendorf SE). After 20 minutes, 1 μL from each well of the bacteria plate is transferred to premade Tryptic Soy Agar (TSA) plates (OmniTray Cell Culture Treated w/Lid Sterile, Cat. No: 165218) for spot plating using the Integra VIAFLOW 96 with the Integra 12.5 μL head (Part No. 6101). Then 4 μL from each well of the bacteria/compound plate is transferred to another 96 well plate containing 36 μL of neutralizer broth Modified Letheen Broth (BD Difco Letheen Broth, Modified REF 263010). The contact time is stopped at 20 minutes once the compound plate is neutralized. The plates are mixed well using a Mix-Mate and then 1 μL of the neutralizer+sample mix is transferred to a TSA OmniTray plate using the Integra VIAFLOW and Integra 12.5 μL head. The TSA spot plates are then incubated overnight for 20 hours at 37° C. in an Incubator. This process is done for both bacteria species. After overnight incubation, the plates are removed from the incubator and the results recorded by observing which dilutions had bacterial kill/growth. The last dilution that had kill for both replicates is recorded as the MKC. A positive control of Benzalkonium chloride (Sigma Aldrich Cat. No.: 12060-5G) and vehicle controls are always included in the test.

Assay [2] has as its system Staphylococcus aureus ATCC 6538. Kind of assay: Minimal Kill Concentration Assay (MKCA), S. aureus. To be noted: for S. aureus MKC (ppm) / minimal kill concentration (20-minute contact): 20-minute contact time. The procedure:
as §1

Assay [3] has as its system Staphylococcus aureus ATCC #6538. The assay is described as follows: Minimum Inhibitory Concentration (MIC) Assay with Minimum Biocidal Concentration (MBC). To be noted: for MBC / MIC: Staphylococcus aureus, ATCC6538, 24 h; for MBC: read-out: S. aureus MBC (ppm); for MIC: read-out: S. aureus MIC (ppm). The procedure:
The Minimum Inhibitory Concentration (MIC) Assay is a 96-well high throughput method that determines the minimum concentration of an active required to inhibit the growth of microorganisms. Organism preparation: Compounds were evaluated against the following microorganisms: Staphylococcus aureus ATCC #6538 (American Type Culture Collection, Manassas, Virginia, USA). To prepare bacteria solutions, bacteria were streaked on Tryptic Soy Agar (TSA) and incubated at 30-35° C. for 18-24 hrs. Confluent growth was transferred to saline (0.85% NaCl) and turbidometrically adjusted to a target concentration of 10^7-10^8 CFU/ml. This inoculum solution was further diluted 1:1000 in Tryptic Soy Broth (pH 7) for assay use. Assay: Two-fold serial dilutions were prepared in Dimethylsulfoxide (DMSO, Thermo Scientific Pierce DMSO, Sequencing Grade) or sterile water for each test sample. In a sterile 96-well plate, each dilution was further diluted in broth inoculum such that each well contained 5% dilution and 95% broth inoculum. Bacteria plates were incubated on an orbital shaker (Heidolph Titramax 1000 Vibrating Platform Shaker, 200-300 rpm) for 24±2 hrs at 35° C. After incubation, the optical density (OD) of each well was measured in a spectrophotometer (Victor Nivo Multimode Plate Reader) at 600 nm. […] To determine the Minimum Biocidal Concentration (MBC), 2 ul from each well was pipetted onto neutralizing agar (Modified Letheen Agar with Tween) and incubated for 24 hrs at 30-35° C. The MBC was determined as the most dilute concentration with no visible growth.

[4] abbreviates: Table 1.4b, solvent DMSO, 20-minute contact time.
The mark [5] stands for this setting: Table 1.5, solvent DMSO, >=50% inhibition, 24 hrs at 35° C.
[6] abbreviates: Table 1.5, solvent DMSO, no visible growth.
Setting [7] is: Table 4, derivatized rhamnolipids, solvent DMSO, 20-minute contact time.
The mark [8] stands for this setting: Staphylococcus aureus, ATCC6538, 20 min, Table 4, derivatized rhamnolipids, solvent DMSO, read-out: S. aureus MKC (ppm).
The mark [9] stands for this setting: Table 1.4b, solvent water, 20-minute contact time.
Where [10] appears, read: Staphylococcus aureus, ATCC6538, 20 min, Table 1.4b, solvent water, read-out: S. aureus MKC (ppm).

A word on the MIC: it is the lowest concentration that inhibits growth of the organism.

≈ marks a conversion by molar mass, not a printed value. Where two headings read alike, the source gives them in different places.

Consider `CCCCCCCCCCCC(O)CC(=O)O` (racemic) [DL-β-Hydroxymyristic acid, reference compound], for which the “E. coli MKC (ppm)” value in assay [1] (setting [4]) is on record as 122 ppm. The “S. aureus MKC (ppm)” value in assay [2] (Table 1.4b, solvent DMSO) is 244 ppm. The “S. aureus MIC (ppm)” value in assay [3] (setting [5]) was 365 ppm. Further, the “S. aureus MBC (ppm)” value in assay [3] (setting [6]) turned out to be 731 ppm.
Turning to `CCCCCCCC(CC(=O)N(CCCC)CCCC)O[C@@H]1O[C@@H](C)[C@H](O)[C@@H](O)[C@H]1O[C@@H]1O[C@@H](C)[C@H](O)[C@@H](O)[C@H]1O` (stereo partly drawn) [N,N-dibutyl-3-(((2R,3R,4R,5R,6S)-4,5-dihydroxy-6-methyl-3-(((2S,3R,4R,5R,6S)-3,4,5-trihydroxy-6-methyltetrahydro-2H-pyran-2-yl)oxy)tetrahydro-2H-pyran-2-yl)oxy)decanamide], the MBC in assay [1] (setting [7]) came to 5920 µg/mL (≈ 10 mM); in assay [3] (Table 5, solvent DMSO), 296 µg/mL (≈ 0.5 mM). For the same compound, the minimal kill concentration (20-minute contact) in assay [2] (setting [8]) is 2960 µg/mL. Also, the MIC in assay [3] (Table 5, solvent DMSO) was 296 µg/mL (≈ 0.5 mM).
Take `CCCCCC(CC(=O)O)OC1O[C@@H](C)[C@H](O)[C@@H](O)[C@H]1O` (stereo partly drawn) [Rha1C14]: the “E. coli MKC (ppm)” value in assay [1] (setting [4]) came to 781 ppm. Further, the “S. aureus MKC (ppm)” value in assay [2] (Table 1.4b, solvent DMSO) was 781 ppm. For the same compound, the “S. aureus MIC (ppm)” value in assay [3] (setting [5]) is listed as 625 ppm. Further, the “S. aureus MBC (ppm)” value in assay [3] (setting [6]) is above 10000 ppm.
For `CCCCCCCC(CC(=O)NCC(CC)CCCC)O[C@@H]1O[C@@H](C)[C@H](O)[C@@H](O)[C@H]1O[C@@H]1O[C@@H](C)[C@H](O)[C@@H](O)[C@H]1O` (stereo partly drawn) [3-(((2R,3R,4R,5R,6S)-4,5-dihydroxy-6-methyl-3-(((2S,3R,4R,5R,6S)-3,4,5-trihydroxy-6-methyltetrahydro-2H-pyran-2-yl)oxy)tetrahydro-2H-pyran-2-yl)oxy)-N-(2-ethylhexyl)decanamide], the MBC in assay [1] (setting [7]) was above 5920 µg/mL. Besides, in assay [2] (setting [8]), the minimal kill concentration (20-minute contact) came out at 2960 µg/mL. Moreover, in assay [3] (Table 5, solvent DMSO), the MBC came to 592 µg/mL (≈ 1 mM) and the MIC amounted to 296 µg/mL (≈ 0.5 mM).
The corresponding values for `CCCCCCCC(CC(=O)NC1CCCCC1)O[C@@H]1O[C@@H](C)[C@H](O)[C@@H](O)[C@H]1O[C@@H]1O[C@@H](C)[C@H](O)[C@@H](O)[C@H]1O` (stereo partly drawn) [N-cyclohexyl-3-(((2R,3R,4R,5R,6S)-4,5-dihydroxy-6-methyl-3-(((2S,3R,4R,5R,6S)-3,4,5-trihydroxy-6-methyltetrahydro-2H-pyran-2-yl)oxy)tetrahydro-2H-pyran-2-yl)oxy)decanamide] are above 5620 µg/mL, above 5620 µg/mL, above 2250 µg/mL and above 2250 µg/mL.
On the same counts, the results for `CCCCCCCC(CC(=O)OC)O[C@@H]1O[C@@H](C)[C@H](O)[C@@H](O)[C@H]1O` (stereo partly drawn) [methyl 3-(((2R,3R,4R,5R,6S)-3,4,5-trihydroxy-6-methyltetrahydro-2H-pyran-2-yl)oxy)decanoate] are above 3490 µg/mL, above 3490 µg/mL, 1400 µg/mL (≈ 4 mM) and 1400 µg/mL (≈ 4 mM).
Turning to `CCCCCCCCC[C@@H](O)CC(=O)O` [(3R)-3-hydroxydodecanoic acid, reference compound], in assay [1] (setting [9]), the MBC was above 865 µg/mL. The minimal kill concentration (20-minute contact) in assay [2] (setting [10]) is 865 µg/mL.
On to `CCCCCCCC(O)CC(=O)O` (racemic) [(±)-3-Hydroxydecanoic acid, reference compound], for which the MBC in assay [1] (setting [9]) stood at 753 µg/mL (≈ 4 mM). The minimal kill concentration (20-minute contact) in assay [2] (setting [10]) is 753 µg/mL. In addition, the MIC in assay [3] turned out to be 1130 µg/mL (≈ 6 mM).
Turning to `CCCCCCCCCC(O)CC(=O)O` (racemic) [DL-β-Hydroxylauric acid, reference compound], the “E. coli MKC (ppm)” value in assay [1] (setting [9]) is listed as above 865 ppm. In addition, the “S. aureus MKC (ppm)” value in assay [2] (Table 1.4b, solvent water) is listed as above 865 ppm. In addition, in assay [3] (setting [5]), the “S. aureus MIC (ppm)” value is 325 ppm. In assay [3] (setting [6]), the “S. aureus MBC (ppm)” value is 650 ppm.
Consider `CCCCCC(O)CC(=O)O` (racemic) [(±)-3-Hydroxyoctanoic acid, reference compound], for which, in assay [1] (setting [9]), the MBC was above 641 µg/mL. Further, in assay [2] (setting [10]), the minimal kill concentration (20-minute contact) was above 641 µg/mL.
As to “Methyl 3-(((2R,3R,4R,5R,6S)-4,5-dihydroxy-6-methyl-3-(((2R,3S,4S,5S,6S)-3,4,5-trihydroxy-6-methyltetrahydro-2H-pyran-2-yl)oxy)tetrahydro-2H-pyran-2-yl)oxy)decanoate”, the “E. coli MKC (ppm)” value in assay [1] (setting [7]) was above 4945.8 ppm. Moreover, in assay [2] (Table 4, derivatized rhamnolipids, solvent DMSO), the “S. aureus MKC (ppm)” value is listed as above 4945.8 ppm. In assay [3] (Table 5, solvent DMSO), the “S. aureus MBC (ppm)” value stood at 1978.3 ppm and the “S. aureus MIC (ppm)” value stood at 1978.3 ppm.
For `CCCCCCCC(CC(=O)O)O[C@@H]1O[C@@H](C)[C@H](O)[C@@H](O)[C@H]1O[C@@H]1O[C@H](C)C(O)[C@@H](O)[C@H]1O` (stereo partly drawn) [calcium 3-(((2R,3R,4R,5R,6S)-4,5-dihydroxy-6-methyl-3-(((2S,3R,4R,6R)-3,4,5-trihydroxy-6-methyltetrahydro-2H-pyran-2-yl)oxy)tetrahydro-2H-pyran-2-yl)oxy)decanoate], the MBC is above 9390 µg/mL in assay [1]; above 9390 µg/mL in assay [2] (Staphylococcus aureus, ATCC6538, 20 min, read-out: S. aureus MKC (ppm)); above 4000 µg/mL in assay [3] (Table 5, solvent DMSO). Also, the MIC in assay [3] (Table 5, solvent DMSO) was above 4000 µg/mL.
As for `CCCCCCCC(CC(=O)N(C)OC)O[C@@H]1O[C@@H](C)[C@H](O)[C@@H](O)[C@H]1O[C@@H]1O[C@@H](C)[C@H](O)[C@@H](O)[C@H]1O` (stereo partly drawn) [3-(((2R,3R,4R,5R,6S)-4,5-dihydroxy-6-methyl-3-(((2S,3R,4R,5R,6S)-3,4,5-trihydroxy-6-methyltetrahydro-2H-pyran-2-yl)oxy)tetrahydro-2H-pyran-2-yl)oxy)-N-methoxy-N-methyldecanamide], the MBC in assay [1] (setting [7]) was above 5240 µg/mL. For the same compound, the minimal kill concentration (20-minute contact) in assay [2] (setting [8]) was above 5240 µg/mL. Besides, in assay [3] (Table 5, solvent DMSO), the MBC was above 2090 µg/mL and the MIC amounted to 2090 µg/mL (≈ 4 mM).
Turning to `CCCCCCCC(CC(=O)NCCO)O[C@@H]1O[C@@H](C)[C@H](O)[C@@H](O)[C@H]1O[C@@H]1O[C@@H](C)[C@H](O)[C@@H](O)[C@H]1O` (stereo partly drawn) [3-(((2R,3R,4R,5R,6S)-4,5-dihydroxy-6-methyl-3-(((2S,3R,4R,5R,6S)-3,4,5-trihydroxy-6-methyltetrahydro-2H-pyran-2-yl)oxy)tetrahydro-2H-pyran-2-yl)oxy)-N-(2-hydroxyethyl)decanamide], the MBC in assay [1] (setting [7]) was above 5240 µg/mL. Moreover, the minimal kill concentration (20-minute contact) in assay [2] (setting [8]) was above 5240 µg/mL. Moreover, in assay [3] (Table 5, solvent DMSO), the MBC is above 2090 µg/mL and the MIC was above 2090 µg/mL.
